Reference: paper PMC12549899 (Nature Communications, 2025)
Where a chain is given by its changes, count along the chain named. Values joined by “and” are separate entries in the source; they are usually repeats but may differ in a detail not shown here. Equal values may be shown once.

Tests used:
DrOTOP1 A388W = target: T1, DrOTOP1 A388W (Danio rerio, UniProt Q7ZWK8, A388W); assay: Whole-cell patch-clamp, inhibition of acid-evoked currents, DrOTOP1 A388W; format: cell-based, zebrafish (Danio rerio); settings: single cells
T1 construct: A previously generated codon-optimized full-length DrOTOP1[8]; (UniProt: Q7ZWK8) construct; expressed in transfected cells; host or cells: HEK-293 (CRL-1573, ATCC)
T1 sequence (Q7ZWK8 1-586 A388W): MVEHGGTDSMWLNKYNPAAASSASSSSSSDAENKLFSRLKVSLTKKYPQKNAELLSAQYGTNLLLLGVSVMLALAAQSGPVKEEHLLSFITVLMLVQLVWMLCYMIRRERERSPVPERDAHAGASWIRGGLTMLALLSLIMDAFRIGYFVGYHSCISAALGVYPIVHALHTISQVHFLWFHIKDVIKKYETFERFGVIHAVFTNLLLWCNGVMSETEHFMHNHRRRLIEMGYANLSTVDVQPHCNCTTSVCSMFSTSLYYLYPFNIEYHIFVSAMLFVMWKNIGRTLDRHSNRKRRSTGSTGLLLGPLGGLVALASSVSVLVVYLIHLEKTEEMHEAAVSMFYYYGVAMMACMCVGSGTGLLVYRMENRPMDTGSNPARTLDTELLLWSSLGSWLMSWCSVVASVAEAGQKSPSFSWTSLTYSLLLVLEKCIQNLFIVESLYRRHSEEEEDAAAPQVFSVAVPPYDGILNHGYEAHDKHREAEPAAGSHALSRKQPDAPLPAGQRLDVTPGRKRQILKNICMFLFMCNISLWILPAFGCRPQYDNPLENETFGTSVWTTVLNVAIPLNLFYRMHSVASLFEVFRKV
Description: (§1) To functionally test the significance of the two binding sites identified by cryo-EM, we generated point mutations of DrOTOP1 using the binding poses and conformational changes observed in DrOTOP1_C2.2 to guide our mutations. As per the binding pose that best fits our cryo-EM density, C2.2 forms the following interactions in the outer site: hydrophobic packing against many non-polar residues W126, G130, M133, L134, F271, F570, and M573, and π-stacking with W532 (Fig. 5A). In addition, C2.2 could potentially form H-bonds with E267, if the sidechain is protonated or a water bridge is present, and with H574 if it moves closer (Fig. 5A). Likewise, C2.36 presents a heterocyclic nitrogen that can potentially form a H-bond with E267, similarly, provided a protonation or water bridge is present (Fig. 5B). In addition, C2.36 forms a T-shaped π-stacking interaction with H574, whose sidechain has rotated 90 degrees (compared to DrOTOP1_apo), presumably to accommodate the interaction (Fig. 5B). […]
(§2) Whole-cell patch-clamp recording was performed as previously described[6],[22],[25]. Recordings were made with an Axopatch 200B amplifier, digitized with a Digidata 1322a 16-bit data acquisition system, acquired with pClamp 8.2 and analyzed with Clampfit 10 (Molecular Devices). […]

DrOTOP1 F277A = target: T2, DrOTOP1 F277A (Danio rerio, UniProt Q7ZWK8, F277A); assay: Whole-cell patch-clamp, inhibition of acid-evoked currents, DrOTOP1 F277A; format: cell-based, zebrafish (Danio rerio); settings: single cells or mean
T2 construct: A previously generated codon-optimized full-length DrOTOP1[8]; (UniProt: Q7ZWK8) construct; expressed in transfected cells; host or cells: HEK-293 (CRL-1573, ATCC)
T2 sequence (Q7ZWK8 1-586 F277A): T1 sequence (Q7ZWK8 1-586 A388W) with F277A, W388A
Description: as §1, §2

SMILES | Inhibition of currents (DrOTOP1 A388W; 100 µM) | inhibition at 100 µM (DrOTOP1 A388W) | inhibition at 10 µM (DrOTOP1 F277A)
O=C(/C(=N\O)c1ccccc1)c1ccccc1 [C11, benzil monoxime] | 53.4353% and 72.6918% and 53.0458% and 57.2816% and 61.0959% | 72.4% | –
C=C(C)COc1ccccc1NC(=O)c1nc[nH]c1C [C2.2] | – | – | 76.2%
